Results from patent US6559126B2 (Institut Pasteur, priority 2000, dated 2003).
Like-named read-outs stand apart in the source and are kept apart here. Ends that are not written are not given here.

What was measured:
KDR [1] = assay: Competition assay of 125I-VEGF binding to CHO-KDR cells; settings: for efficiency of V1 analogues in displacing 125I-VEGF165 from CHO-KDR cells: displacement curves, FIGS. 10-11; for inhibitory effect on VEGF binding to KDR (CHO-KDR cells): fixed peptide concentration 2.1×10^−4 M, heparin present
Procedure: Competition assay of binding to CHO-KDR cells. CHO-KDR cells were seeded in 24-well plates at a density of 5×10^5 cells/well. After 24 h, subconfluent plates were transferred at 4 C., and all subsequent operations were done at 4 C. […] The amount of radioactivity bound to the cells was counted in a gamma counter (LKB 1261 Multigamma). The receptor affinity and the number of binding sites per cell were determined by Scatchard's analysis (Scatchard, 1986).

VEGF-R2 on HUV-EC cells = format: binding; settings: for Kd: Scatchard analysis
Description: (§1) Experimental conditions are indicated in the legend of FIG. 10.
(see FIGS. 16A, B and C).

[2] = tested on: VEGF-induced corneal angiogenesis; assay: Rabbit corneal pocket assay; format: in vivo; settings: day 12; for effect on VEGF-induced corneal angiogenic response: implant with 2 pmol VEGF and 30 nmol peptide; for corneal neovascularization by peptide alone vs vehicle: implant with 30 nmol peptide, no VEGF
Procedure: Rabbit corneal pocket assay. […] These implants were inserted in New Zealand rabbit (Elevage du Trottis, Esperce, France) corneal stroma 2 mm away from the limbus (Favard et al, 1991). Neovascularization was assessed on day 12 by direct examination with a slit lamp and scored according to a 4 grade scale (grade 1: less than 1 mm long neovessels, grade 2: 1 mm long neovessels, grade 3: 1 to 2 mm long neovessels, grade 4: neovessels extending to the implant). Means and standard deviations were determined on 8 implant groups for each condition.

[3] = tested on: VEGF-R2-VEGF165 and NP1-VEGF165 complexes; assay: Cross linking of I125 VEGF165 to HUV-EC cells; format: binding, human; settings: V1 2.4×10−4M and 4.8×10−4M, I125 VEGF165 160 pM
Description: FIG. 19: Cross linking of I125 VEGF165 (160 pM) to HUV-EC cells. 1: Total binding. […] 3: V1, (2.4×10−4M). 4: V1, (4.8×10−4M).
The 240-260 kDa complex could correspond to the […] complex and the 160-170 kDa complex could correspond to the NP1 -VEGF 165 complex. The labeling of the two complexes was decreased in the presence of the V1 peptide. (FIG. 19)

neuropilin 1 (NP1) = target: T1, neuropilin 1 (NP1) (Homo sapiens, UniProt O14786); assay: Displacement of 125I-VEGF165 binding to MDA-MB 231 cells; settings: cells without VEGF-R2, expressing NP1; read-out: CI 50 of inhibition of 125I VEGF165 binding to MDA-MB cells (converted)
T1 construct: endogenous in cells; host or cells: MDA-MB 231 breast tumoral cell line
Description: as §1

CPAE cells = assay: CPAE cell proliferation assay (BrdU incorporation); format: cell-based, calf
Procedure: (§2) Cell proliferation assay. To test the anti-VEGF antibody neutralizing effect, CPAE cells were plated into 96-well tissue culture plates at a density of 500 cells/well. After 24 h, various concentrations of anti-VEGF antibody were added. The cells were cultured for an additional day and cell proliferation was measured using the Cell proliferation ELISA kit from Boerhinger (Indianapolis, Ind.). Cells were incubated with BrdU for 4 h at 37 C., and the incorporation of BrdU in newly synthetized DNA was quantified by immunoassay as described by the manufacturer. To investigate the peptide effect, after 24 h of CPAE cell growth, 2.1×10^−4M synthetic peptides were added daily to the culture medium. Cell proliferation was assessed after 24 h, 48 h or 72 h as described above. […] Cells were trypsinized and counted after 5 days using a Coulter counter.

HUAE cells [4] = assay: VEGF-induced HUAE cell proliferation; format: cell-based, human; settings: 2 ng/ml VEGF, peptide daily, counted after 5 days
Procedure: as §2

HUVEC = assay: VEGF165-induced HUVEC proliferation; format: cell-based, human; settings: V1 400 μg/ml, various VEGF165 concentrations, 96 hours
Procedure: FIG. 13 Effect of V1 (400 μg/ml) VEGF165 induced HUVEC proliferation. Various concentrations of VEGF165 were added during 96 hours.
The inhibitory effect of V1 on Human umbilical vein endothelial cell (HUVEC) in primary culture.

HUAE cells [5] = assay: KDR anti-idiotypic antibody (AIA)-induced HUAE cell proliferation; format: cell-based, human; settings: 100 ng/ml KDR anti-idiotypic antibodies, peptide daily, 5 days
Procedure: as §2

KDR [6] = target: T2, KDR (Homo sapiens, UniProt P35968); assay: ELISA of phage-displayed peptide binding to CHO-KDR cells; settings: clones selected by anti-VEGF antibody binding, 10^12 pfu/ml
T2 construct: expressed in transfected cells; host or cells: glycosaminoglycan-deficient pgsA 745 CHO cells, psV-7d expression vector
Procedure: Exponentially growing CHO-KDR cells were seeded in 96-well microtiter plates at 7×10^4 cells/well and left overnight at 37 C. Cells were fixed with paraformaldehyde (4% in PBS) for 15 min at room temperature and washed with PBS. Wells were then filled with PBS-Glycine 0.2%, kept for 15 min at room temperature and then washed with PBS. Phage particles (10^12 or 10^13/Ml) were added to each well and incubated 2 h at room temperature. Wells were washed with PBS and the amount of bound phage was detected with peroxidase-conjugated anti-M13 phage serum (Pharmacia Biotech, Uppsala, Sweden).

T2 sequence (P35968 20-1356): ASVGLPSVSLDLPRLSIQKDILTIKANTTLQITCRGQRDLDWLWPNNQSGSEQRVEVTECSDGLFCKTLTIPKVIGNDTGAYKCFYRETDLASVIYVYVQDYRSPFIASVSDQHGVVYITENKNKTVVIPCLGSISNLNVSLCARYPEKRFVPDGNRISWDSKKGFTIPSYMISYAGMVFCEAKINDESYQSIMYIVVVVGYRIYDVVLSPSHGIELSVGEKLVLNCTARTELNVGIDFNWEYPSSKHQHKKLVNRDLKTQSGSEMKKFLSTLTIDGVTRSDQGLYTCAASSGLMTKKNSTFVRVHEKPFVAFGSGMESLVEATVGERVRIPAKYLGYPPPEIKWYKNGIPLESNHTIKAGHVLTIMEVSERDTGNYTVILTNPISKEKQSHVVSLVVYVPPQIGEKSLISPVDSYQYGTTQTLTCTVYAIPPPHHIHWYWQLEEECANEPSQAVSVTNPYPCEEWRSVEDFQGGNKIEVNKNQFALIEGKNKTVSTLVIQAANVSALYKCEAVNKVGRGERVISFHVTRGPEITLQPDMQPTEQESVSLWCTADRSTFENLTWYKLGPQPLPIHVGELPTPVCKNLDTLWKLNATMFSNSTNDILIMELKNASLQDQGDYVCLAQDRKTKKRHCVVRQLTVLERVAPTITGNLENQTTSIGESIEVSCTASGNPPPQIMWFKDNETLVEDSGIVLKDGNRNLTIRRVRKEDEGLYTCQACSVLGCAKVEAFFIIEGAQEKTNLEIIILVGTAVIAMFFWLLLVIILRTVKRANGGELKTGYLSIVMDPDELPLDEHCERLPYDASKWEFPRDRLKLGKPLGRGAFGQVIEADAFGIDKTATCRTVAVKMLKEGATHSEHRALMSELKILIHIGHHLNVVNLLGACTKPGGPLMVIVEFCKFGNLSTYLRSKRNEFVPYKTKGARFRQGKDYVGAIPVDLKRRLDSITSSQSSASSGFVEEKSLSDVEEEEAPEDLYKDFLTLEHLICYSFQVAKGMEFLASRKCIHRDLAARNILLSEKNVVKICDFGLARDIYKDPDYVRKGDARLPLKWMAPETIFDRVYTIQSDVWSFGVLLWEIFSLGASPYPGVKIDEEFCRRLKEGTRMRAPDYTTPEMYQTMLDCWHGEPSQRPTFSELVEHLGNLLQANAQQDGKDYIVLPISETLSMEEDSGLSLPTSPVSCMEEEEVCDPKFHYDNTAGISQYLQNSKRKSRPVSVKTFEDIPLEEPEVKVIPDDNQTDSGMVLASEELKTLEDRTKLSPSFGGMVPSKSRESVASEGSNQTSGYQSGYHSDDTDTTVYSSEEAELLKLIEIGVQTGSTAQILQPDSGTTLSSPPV
T1 sequence (O14786 22-923): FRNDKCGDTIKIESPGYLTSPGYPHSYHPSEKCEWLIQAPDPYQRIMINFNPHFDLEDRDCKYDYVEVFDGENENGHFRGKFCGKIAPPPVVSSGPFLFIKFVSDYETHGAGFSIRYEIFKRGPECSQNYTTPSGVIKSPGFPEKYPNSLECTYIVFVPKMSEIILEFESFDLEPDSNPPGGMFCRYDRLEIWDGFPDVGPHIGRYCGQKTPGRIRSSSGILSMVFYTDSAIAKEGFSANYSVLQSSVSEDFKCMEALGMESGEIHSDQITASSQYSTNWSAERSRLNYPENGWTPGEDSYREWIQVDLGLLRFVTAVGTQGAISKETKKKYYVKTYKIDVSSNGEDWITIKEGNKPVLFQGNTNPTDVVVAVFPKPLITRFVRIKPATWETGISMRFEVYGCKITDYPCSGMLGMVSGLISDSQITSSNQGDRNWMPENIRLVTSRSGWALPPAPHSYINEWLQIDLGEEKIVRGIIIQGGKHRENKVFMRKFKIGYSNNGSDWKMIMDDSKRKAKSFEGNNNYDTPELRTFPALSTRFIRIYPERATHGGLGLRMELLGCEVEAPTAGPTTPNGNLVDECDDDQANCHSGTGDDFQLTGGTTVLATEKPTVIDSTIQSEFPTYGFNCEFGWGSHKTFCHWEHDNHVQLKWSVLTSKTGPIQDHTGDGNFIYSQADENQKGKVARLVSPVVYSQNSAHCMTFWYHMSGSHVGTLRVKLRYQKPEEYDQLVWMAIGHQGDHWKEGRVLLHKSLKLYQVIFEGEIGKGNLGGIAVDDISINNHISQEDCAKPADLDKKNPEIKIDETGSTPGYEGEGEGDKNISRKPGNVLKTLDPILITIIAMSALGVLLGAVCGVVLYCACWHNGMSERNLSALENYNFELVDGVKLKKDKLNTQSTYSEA

AAWLPPK [A9, V1 analogue, substitution of the C-terminal arginine by lysine]
efficiency of V1 analogues in displacing 125I-VEGF165 from CHO-KDR cells (KDR [1]): reduced the peptide efficiency

Heparin [reference compound]
optimal heparin concentration for increasing VEGF binding to CHO-KDR cells (KDR [1]): 1.8 µg/mL

ATWLPPA [A7]
efficiency of V1 analogues in displacing 125I-VEGF165 from CHO-KDR cells (KDR [1]): totally devoid of activity

ATALPP [A10]
efficiency of V1 analogues in displacing 125I-VEGF165 from CHO-KDR cells (KDR [1]): significantly reduced the peptide efficiency

VEGF
Kd (VEGF-R2 on HUV-EC cells; read-out: Kd of I125 VEGF165 on HUV-EC cells, high affinity receptors): 0.117 nM | Kd (VEGF-R2 on HUV-EC cells; read-out: Kd of I125 VEGF165 on HUV-EC cells, second (lower affinity) receptors): 2.3 nM

ATWLPPR [V1, ATWLPPR]
effect on VEGF-induced corneal angiogenic response [2]: totally abolished | corneal neovascularization by peptide alone vs vehicle [2]: did not improve the generation of new blood vessels | labeling of the two 125I-VEGF-receptor complexes [3]: decreased | IC50 (neuropilin 1 (NP1)): 45200 nM | reduction of CPAE cell proliferation (CPAE cells; 2.1×10^−4 M peptide, 24 h): 60% | inhibition of VEGF-induced HUAE cell proliferation (HUAE cells [4]): suppressed the mitogenic activity of VEGF in a dose dependent manner | inhibition of VEGF-induced HUVEC proliferation (HUVEC): inhibited by V1 in a non competitive manner | effect on VEGF binding to HUV-EC cells (VEGF-R2 on HUV-EC cells; V1 40 μg/ml, Scatchard): inhibited only the VEGF binding to high affinity receptors | inhibition of AIA-dependent HUAE cell proliferation (HUAE cells [5]): could suppress the AIA-dependent cell proliferation | ELISA signal of phage clones on CHO-KDR cells (KDR [6]): best reactivities | effect on affinity of I125 VEGF165 for receptors of transfected CHO cells (Scatchard) (KDR [1]; V1 50 μg/ml): lowered | effect on heparin-dependent VEGF165 binding to transfected CHO cells (KDR [1]; V1 50 μg/ml): inhibited this heparin agonistic effect | inhibitory effect on VEGF binding to KDR (CHO-KDR cells) (KDR [1]): showed an inhibitory effect

ILDNYKL [V5]
effect on VEGF-induced corneal angiogenic response [2]: not modified | corneal neovascularization by peptide alone vs vehicle [2]: did not improve the generation of new blood vessels | inhibition of VEGF-induced HUAE cell proliferation (HUAE cells [4]): no inhibitory effect | inhibition of AIA-dependent HUAE cell proliferation (HUAE cells [5]): unlike V5, V1 could suppress | effect on VEGF binding to CHO-KDR cells, various concentrations (KDR [1]; same conditions as V1 dose response, FIG. 5): did not modify VEGF binding

LPPNPTK [V6]
ELISA signal of phage clones on CHO-KDR cells (KDR [6]): best reactivities | inhibitory effect on VEGF binding to KDR (CHO-KDR cells) (KDR [1]): no effect on VEGF binding to KDR

SLPAHAR [K4]
effect on endothelial cell growth (words, discussion) (CPAE cells; in vitro): minor effect on endothelial growth
